Experimental data: article PMC12349723, “Computationally accelerated identification of P-glycoprotein inhibitors” (PLOS One, 2025)
Where two headings read alike, the source gives them in different places.

Legend:
[1] = test system: DU145-TXR cells; test: MTT viability assay, reversal of MDR (re-sensitization to paclitaxel) in P-gp overexpressing DU145-TXR cells; assay type: cell-based, human; settings: for viability at 15 µM: Homo sapiens, 15 µM Compound Alone
Method in brief: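 MTT viability testing was done on P-gp overexpressing, multidrug resistant DU145-TXR human prostate cancer cells. They were kept in 10 nM paclitaxel and seeded at 3,000 cells per well in complete RPMI. Cells were exposed to compound, with or without paclitaxel, for 48 hours. MTT was then added for 4 hours, formazan was dissolved in DMSO, and absorbance was read at 570 nm. Survival was expressed relative to control-treated cells.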

[2] = test system: A2780 cells; test: MTT viability assay, parental A2780 cells, with or without PTX; assay type: cell-based, human; settings: for % Survival (individual sample): single samples
Method in brief: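 A2780 and doxorubicin-selected (100 nM) P-gp-overexpressing A2780-ADR cells, 3,000/well in RPMI + 10% FBS, were exposed to compounds, with or without chemotherapeutic, for 48 h at 37 °C. MTT read at 570 nm after 4 h; survival expressed as percent of vehicle, or vehicle-plus-chemotherapeutic, control.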

[3] = test system: P-gp; test: SWISS-ADME prediction of P-gp transport substrate; settings: prediction compared to the LC-MS/MS intracellular accumulation data
Method in brief: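 In silico prediction by the SWISS-ADME server of chemical properties and of whether each molecule is a P-gp transport substrate, based on its chemical and structural characteristics.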

In the case of `O=C(c1nc(-c2ccccn2)no1)N1CCN(c2nsc3ccccc23)CC1` [Compound 124, O=C(N1CCN(CC1)c1nsc2ccccc12)c1nc(no1)-c1ccccn1], the “% Survival, mean” value ([1]; 15 µM compound + 500 nM PTX (Paclitaxel, Taxol), DU145-TXR, mean of 8 samples) is reported as 75.6%, the “% Survival” value ([1]; 15 µM compound + 500 nM PTX (Paclitaxel, Taxol), DU145-TXR, trial 1, sample 1) is reported as 62% and the “% Survival” value ([1]; 15 µM compound + 500 nM PTX (Paclitaxel, Taxol), DU145-TXR, trial 1, sample 2) is reported as 72%. For the same molecule, the “% Survival” value ([1]; 15 µM compound + 500 nM PTX (Paclitaxel, Taxol), DU145-TXR, trial 1, sample 3) was 95%, the “% Survival” value ([1]; 15 µM compound + 500 nM PTX (Paclitaxel, Taxol), DU145-TXR, trial 1, sample 4) was 73% and the “% Survival” value ([1]; 15 µM compound + 500 nM PTX (Paclitaxel, Taxol), DU145-TXR, trial 2, sample 1) was 91%. The “% Survival” value ([1]; 15 µM compound + 500 nM PTX (Paclitaxel, Taxol), DU145-TXR, trial 2, sample 2) was 86%, the “% Survival” value ([1]; 15 µM compound + 500 nM PTX (Paclitaxel, Taxol), DU145-TXR, trial 2, sample 3) was 67% and the “% Survival” value ([1]; 15 µM compound + 500 nM PTX (Paclitaxel, Taxol), DU145-TXR, trial 2, sample 4) was 58%. For the same molecule, the “Re-sensitization of DU145-TXR cells to PTX (reversal of MDR)” value ([1]; 15 µM compound with or without 500 nM PTX, 48 h, MTT, re-sensitization = 30% or greater decrease in cell viability) was “re-sensitized DU145-TXR cells to PTX”, the viability at 15 µM ([1]; DU145-TXR, mean of 8 samples, read-out: % Survival, mean) was 98.6% and the viability at 15 µM ([1]; DU145-TXR, trial 1, sample 1, read-out: % Survival) was 96%. The viability at 15 µM ([1]; DU145-TXR, trial 1, sample 2, read-out: % Survival) was 102%, the viability at 15 µM ([1]; DU145-TXR, trial 1, sample 3, read-out: % Survival) was 79% and the viability at 15 µM ([1]; DU145-TXR, trial 1, sample 4, read-out: % Survival) was 95%. For the same molecule, the viability at 15 µM ([1]; DU145-TXR, trial 2, sample 1, read-out: % Survival) was 114%, the viability at 15 µM ([1]; DU145-TXR, trial 2, sample 2, read-out: % Survival) was 94% and the viability at 15 µM ([1]; DU145-TXR, trial 2, sample 3, read-out: % Survival) was 103%. For the same molecule, the viability at 15 µM ([1]; DU145-TXR, trial 2, sample 4, read-out: % Survival) was 106%, the “Increase of PTX toxicity against parental A2780 cells” value ([2]; 15 µM compound with or without 500 nM PTX, 48 h, MTT) was “did not greatly increase the toxicity of PTX against the parental A2780 cells” and the “Mean % Survival” value ([2]; A2780 cells, 15 µM compound + 500 nM PTX, mean of 8 or 12 samples) was 14.5%. The “% Survival (individual sample)” value ([2]; A2780 cells, 15 µM compound + 500 nM PTX) was 10%, the “% Survival (individual sample)” value ([2]; A2780 cells, 15 µM compound alone) was 86% and the viability at 15 µM ([2]; Homo sapiens, A2780, A2780 cells, 15 µM compound alone, mean of 8 or 12 samples, read-out: Mean % Survival) was 89.5%. For the same molecule, the “Correct P-gp Substrate Prediction?” value [3] was “No”.
